Source: patent US9375450B2, “Vaginal tissue rejuvenation compositions and methods” (priority 2011, dated 2016)

Experiments:
[1] = system: ovariectomized (OVX) Sprague-Dawley rats; test: Macroscopic measurements (genital hiatus, vaginal length) after 2 weeks vaginal suppositories; assay type: in vivo, rat; details: vaginal suppositories 2 weeks (20 μM zinc sulfate, 10 nM GW501516, 0.01% estradiol), mean±SD
Method: (§1) Ten to 12-weeks old female ovariectomized (OVX) Sprague-Dawley rats were utilized for the experiments. The animals were acclimatized to the environmental conditions before starting the experiment. The animals were housed individually and were allowed free access to water and rodent food. […] The suppositories were prepared according to the fusion method, using a polypeg suppository base ([…]., USA). […] Using a microwave, the suppository base was melted in a small beaker for 3 min and then transferred and kept into a water bath at a temperature of 55° C. The proper amount of above reagent was added to the liquefied base and meticulously crushed with a smooth rounded-end glass rod for about 20 min to make the solution to be even and clear. A pipette tip was used to suck some amount of solution and push it into a plastic tube with a diameter of 3.5 mm, and the tube was immediately left on the flat surface of an ice bucket. The suppository turned to white in color when it was solid. The moulded suppository was then pushed out of the tube using a round rod. […] After 30 min of cooling at room temperature, the suppositories were stored at 4° C. in a closed chamber until use. They were left to reach room temperature before use. The day after the last treatment the rats were overnight fasted and then sacrificed. Macroscopic measurement (genital hiatus, vaginal length) were taken and the vagina was dissected out carefully to avoid any injury to the vagina. The mid section of the vagina was utilized for histology (H and E stain, Masson's trichrome stain) and immunofluorescence and the rest of the vagina was used for RNA extraction and RT-PCR.

[2] = system: ovariectomized (OVX) Sprague-Dawley rats; test: Vaginal histology and histomorphometry after 2 weeks vaginal suppositories; assay type: in vivo, rat; details: vaginal suppositories 2 weeks
Method: as §1, with “RT-PCR. […] For each animal, a 4 μm-thick paraffin section was cut and stained with haematoxylineosin and with Masson's trichrome stain for morphological examination. […] The cornification was determined by the presence of a keratin layer on the vaginal epithelium. Measurements of the different vaginal layers were performed on the fifth segment of the vagina, which is approximately halfway between the middle region and the portio vaginalis uteri. […] Images were captured with a color digital camera and quantified using ImageJ software was used. […] The thickness of the lamina propria was obtained by deducting the thickness of the epithelium and muscularis from total vaginal thickness.” for “RT-PCR.”

[3] = system: rat vaginal Col1a1, Col3a1, Col5a1 mRNA; test: qRT-PCR of vaginal collagen gene expression after 2 weeks vaginal suppositories; assay type: in vivo; details: OVX rats, vaginal suppositories 2 weeks, mean±SD
Description: Ten to 12-weeks old female ovariectomized (OVX) Sprague-Dawley rats were utilized for the experiments. The animals were acclimatized to the environmental conditions before starting the experiment. The animals were housed individually and were allowed free access to water and rodent food. Two weeks after the ovariectomy rats (n=36) were divided into five groups: control (receiving placebo suppositories, n=8), Zinc (receiving zinc sulfate containing suppositories, n=8), GW (receiving GW501516 containing suppositories, n=8), Zinc with GW (receiving Zinc with GW 501516 containing suppositories, n=8) and Estradiol (receiving estradiol containing suppositories, n=4).
The suppositories were prepared according to the fusion method, using a polypeg suppository base (MEDISCA, N.Y., USA). […] Using a microwave, the suppository base was melted in a small beaker for 3 min and then transferred and kept into a water bath at a temperature of 55° C. The proper amount of above reagent was added to the liquefied base and meticulously crushed with a smooth rounded-end glass rod for about 20 min to make the solution to be even and clear. A pipette tip was used to suck some amount of solution and push it into a plastic tube with a diameter of 3.5 mm, and the tube was immediately left on the flat surface of an ice bucket. The suppository turned to white in color when it was solid. The moulded suppository was then pushed out of the tube using a round rod. The moulded suppository was cut using a razor blade to a length of 1.2 cm each, which was calibrated to equal a volume of 50±5 μl per each suppository. After 30 min of cooling at room temperature, the suppositories were stored at 4° C. in a closed chamber until use. They were left to reach room temperature before use.
Total RNA was isolated from 20 mg of vaginal rat tissue in each experimental rat group using the RNeasy Mini kit (Qiagen) according to the manufacturer's specifications. For each total RNA preparation, DNase digestion was performed to remove contaminating genomic DNA. Total RNA samples from each tissue were quantified and evaluated for RNA integrity by the Agilent Bioanalyzer 2100 (Applied Biosystems, Foster City Calif., USA). Following RNA extraction, cDNA was reverse transcribed from ˜500 ng of each total RNA preparation using the qScript cDNA synthesis kit (Quanta Biosciences, Gaithersburg Md., USA). Finally, cDNA samples were used to perform gene expression analysis by qRT-PCR using SYBR Green technology on the RealPlex EP Mastercycler (Eppendorf, Germany) of five genes with known roles in vaginal tissue reconstruction: Collagen IaI (col 1a1), Collagen IIIaI (col 3a1), Collagen VaI (col 5a1), Elastin (eln), Tensin I (tns-1). Glyceraldehyde-3 Phosphate Dehydrogenase (gapdh) was used as a positive control to normalize the expression of each gene. Each qRT-PCR reaction was run in triplicate using Perfecta SYBR Green Supermix (Quanta Biosciences, Gaithersburg Md., USA) in 25 μL reaction volumes using a final concentration of 300 nM forward and reverse primers. For each of the genes analyzed in this study, primers were designed using Primer-BLAST software (NCBI) and synthesized by IDT Technologies (San Diego, Calif.).

[4] = system: rat vaginal Collagen I, Collagen III, Collagen V protein; test: Immunofluorescence of vaginal collagen protein expression after 2 weeks vaginal suppositories; assay type: in vivo; details: OVX rats, vaginal suppositories 2 weeks, mean±SD
Method: as §1, with “RT-PCR. Samples were incubated with three different antibodies, collagen I, III and anti-actin or collagen I and V and anti-actin. Frozen tissues samples were cut into sections of 6 μm and fixed for 10 min with acetone, followed by five washes of phosphate-buffered saline (PBS). […] After that, sections were incubated with the secondary antibody for one hour in the dark, at room temperature, followed by five washes of PBS. […] Alexa Fluor 405 Goat Anti-Mouse IgG (1:400) (Invitrogen); Cy3-AffiniPure Goat Anti-Mouse IgM (1:400) (Jackson ImmunoResearch Laboratories, West Grove, Pa.); Alexa Fluor 647 (1;200) phalloidin (Invitrogen). […] Four images were obtained per section. Images were capture with an Orca II-ERG 12 bitt CCD camera in a Zeiss Apotome microscope with a 20× objective. The data was analyzed using Matamorph version 7.7.4 software. Results are represented as mean pixel intensity ratios per square area.” for “RT-PCR.”

`C[C@]12CC[C@@H]3c4ccc(O)cc4CC[C@H]3[C@@H]1CC[C@@H]2O` [Estradiol] was tested, and the “genital hiatus (distance between the external urethral meatus and the mid anus)” value ([1]; placebo 12.6±1.1) was 16.0±1.4 mm, the vaginal length ([1]; placebo 14.1±1.1) was 18.7±1.5 mm and the vaginal epithelial thickness ([2]; mean±SD, placebo 57±18) was 140±54 μm. The vaginal muscularis thickness ([2]; mean±SD, placebo 121±44) was 124±53 μm, the “vaginal lamina propria thickness” value ([2]; mean±SD, placebo 179±71) was 152±80 μm and the “vaginal thickness (all three layers of the vagina)” value ([2]; mean±SD, placebo 358±86) was 417±82 μm. For the same compound, the “vaginal epithelial cornification rate” value ([2]; placebo 0%) was 100%, the “lamina propria collagen fiber compactness” value ([2]; scale 0-5 (0=loose, 5=tight), mean±SD, placebo 4.5±0.6) was 1.6±0.6 relative units and the “ratio of vaginal Col1a1 to Col3a1 mRNA expression” value ([3]; placebo 0.78±0.2) was 0.70±0.4 relative units. The “ratio of vaginal Col1a1 to Col5a1 mRNA expression” value ([3]; placebo 4.3±1.9) was 5.3±1.2 relative units, the “ratio of vaginal Collagen I to Collagen III protein expression” value ([4]; placebo 1.16±0.2) was 1.08±0.2 relative units and the “ratio of vaginal Collagen I to Collagen V protein expression” value ([4]; placebo 1.28±0.3) was 1.74±0.5 relative units.
